Our source for the IC50 values is patent US6855730B2, “3-methylidenyl-2-indolinone modulators of protein kinase” (Sugen, Inc., priority 1998, dated 2005).

What all share (assay type): cell-based
The target of experiment [1] is T1, chimeric receptor containing the EGFR extracellular domain and intracellular HER2 kinase domain (Homo sapiens, UniProt P04626).
T1 construct: fused on or other part: EGFR ectodomain + HER2 intracellular part, ATP-site indolinones: HER2's kinase
The experiment in a line: EGF Receptor-HER2 chimeric receptor assay in whole cells (ELISA). Particulars: read-out: HER-2 kinase IC50. In short, it runs like this: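 NIH3T3 cells overexpressing EGFR-extracellular/HER2-kinase chimera, seeded in 0.5% serum for ~40 h, were pretreated with compound (1% final DMSO) 2 h at 37 °C, then stimulated with 100 nM EGF for 5 min. Lysates captured on anti-EGFR plates; phosphotyrosine detected by anti-Ptyr/HRP ELISA at 410 nm as percent inhibition.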

For the next experiment, the system named is SKOV3 cells. The experiment in a line: SKOV3 growth assay (2% FBS). Particulars: Homo sapiens, SK-OV-3, read-out: SKOV3 growth (2% FBS) IC50.
The next experiment concerns A431 cells. The experiment in a line: A431 growth assay (2% FBS). The conditions noted are these: Homo sapiens, A-431, read-out: A431 growth (2% FBS) IC50.

In general, IC50 refers to the concentration that gives 50% inhibition.

The structures appear in SMILES notation.

T1 sequence (P04626 720-1255 limits assumed, change not shown): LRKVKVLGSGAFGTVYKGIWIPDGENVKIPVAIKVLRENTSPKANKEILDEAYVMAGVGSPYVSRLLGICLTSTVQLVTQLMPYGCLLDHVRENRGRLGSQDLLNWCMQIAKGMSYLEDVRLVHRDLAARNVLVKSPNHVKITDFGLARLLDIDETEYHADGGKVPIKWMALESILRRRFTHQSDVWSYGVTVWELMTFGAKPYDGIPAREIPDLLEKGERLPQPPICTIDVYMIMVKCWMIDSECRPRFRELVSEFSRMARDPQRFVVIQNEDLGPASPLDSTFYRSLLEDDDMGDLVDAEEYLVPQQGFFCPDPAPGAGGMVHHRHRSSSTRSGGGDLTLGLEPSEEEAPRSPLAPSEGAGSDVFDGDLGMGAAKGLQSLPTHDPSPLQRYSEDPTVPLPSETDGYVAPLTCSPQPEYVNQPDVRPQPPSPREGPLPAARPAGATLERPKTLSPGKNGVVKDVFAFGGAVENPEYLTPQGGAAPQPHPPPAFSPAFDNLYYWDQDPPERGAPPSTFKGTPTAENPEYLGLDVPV

For `COc1c(C(C)C)cc(/C=C2/C(=O)Nc3ccc(Cl)cc32)cc1C(C)C` [Example 2, 5-Chloro-3-(3,5-diisopropyl-4-methoxybenzylidene)-1,3-dihydroindol-2-one], the values for the IC50 (in experiment [1]; in the experiment with SKOV3 cells; in the experiment with A431 cells) were 13.7 µM, 4.8 µM and 4.5 µM, respectively.
For the compound `Cc1cc(CCC(=O)O)c(/C=C2\C(=O)Nc3ccc(Br)cc32)[nH]1` [Compound 116, 3-[2-(5-Bromo-2-oxo-1,2-dihydroindol-3-ylidenemethyl)-5-methyl-1H-pyrrol-3-yl]-propionic acid], the IC50 in experiment [1] came out at 6.07 µM.
On to `CCOC(=O)c1c(C)[nH]c(/C=C2\C(=O)Nc3ccc(Br)cc32)c1CCC(=O)O` [Compound 114, 5-(5-Bromo-2-oxo-1,2-dihydroindol-3-ylidenemethyl)-4-(2-carboxyethyl)-2-methyl-1H-pyrrole-3-carboxylic acid ethyl ester], for which the half-inhibitory concentration (IC50) in experiment [1] was 61.7 µM.
On to `COc1c(C(C)C)cc(/C=C2/C(=O)Nc3ccccc32)cc1C(C)C` [Example 1, 3-(3,5-Diisopropyl-4-methoxybenzylidene)-1,3-dihydroindol-2-one], for which the figures for the concentration for half-maximal inhibition (IC50) (in experiment [1]; with SKOV3 cells; in the experiment on A431 cells) were 13.8 µM, 5.5 µM and 5.4 µM, respectively.
